Test results as given in the supplement of paper PMC12420376.

Columns and labels:
[1] = tested on: OVCAR8; assay: drug sensitivity score (DSS2) on cancer cell count; higher = more sensitive; extreme values may be limits of the assay; conditions: 72 h
Summary of the method: (§1)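 Ovarian cancer cells were cultured either alone or directly mixed 1:1 with lung or skin fibroblasts and plated onto 384-well plates acoustically pre-spotted with 528 approved and investigational compounds at 5 concentrations for 72 h of treatment. After fixation, cells were immunostained for CK8/18 with Hoechst and imaged at 10× across 4 fields to count cancer cells. Responses were fitted with 4-parameter logistic curves, and from these fits a drug sensitivity score was derived in Breeze, with screen quality assessed by Z'.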

[2] = tested on: KURAMOCHI; assay: as above; conditions: 72 h
Summary of the method: as §1

[3] = co-cultured fibroblast: BJHTERT
[4] = co-cultured fibroblast: none (monoculture)

Row | SMILES | drug sensitivity score [1, 3] [DSS] | drug sensitivity score ([1]; co-cultured fibroblast: WI38) [DSS] | drug sensitivity score [1, 4] [DSS] | drug sensitivity score [2, 3] [DSS] | drug sensitivity score ([2]; co-cultured fibroblast: WI38) [DSS] | drug sensitivity score [2, 4] [DSS]
1 | COCCNCc1ccc(-c2cc3nccc(Oc4ccc(NC(=S)NC(=O)Cc5ccc(F)cc5)cc4F)c3s2)nc1 [Glesatinib] | 0 | 3.5 | 0 | 2.7 | 1.6 | 2.3
2 | COc1cc(C)[nH]c(=O)c1CNC(=O)c1c(C)n([C@H](C)C2CCOCC2)c2ccccc12 [CPI-360] | 0 | 0 | 0 | 0 | 5.4 | 0.7
3 | CC[C@]12C=CCN3CC[C@@]4(c5cc([C@@]6(C(=O)OC)C[C@@H]7C[C@@H](C(C)(F)F)CN(Cc8c6[nH]c6ccccc86)C7)c(OC)cc5N(C)[C@H]4[C@@](O)(C(=O)OC)[C@@H]1OC(C)=O)[C@@H]32 [Vinflunine] | 6.9 | 3.7 | 3.9 | 3.1 | 7 | 7.9
4 | O=C(O)c1ccc(O)c2ncccc12 [IOX-1] | 3.4 | 0.7 | 4.8 | 3.6 | 5.9 | 5.5
5 | COc1cc2ncnc(Oc3cccc(NC(=O)Nc4cc(C(C)(C)C(F)(F)F)on4)c3)c2cc1OC | 0 | 0 | 0.8 | 0 | 1.4 | 0
6 | COCCOc1cnc2ccn([C@H](C)c3nnc4c(F)cc(-c5cnn(C)c5)cn34)c(=O)c2c1 [AMG-337] | 0 | 0 | 0 | 0 | 0 | 0
7 | O=C1NC(=O)[C@@H](c2cn3c4c(cccc24)CCC3)[C@@H]1c1c[nH]c2ccccc12 [Tivantinib] | 4 | 6.4 | 3.8 | 5.4 | 5.9 | 14
8 | CONC(=O)c1ccccc1Nc1cc(Nc2cc(C)nn2C(C)C)ncc1Cl | 0.8 | 4.2 | 0 | 3.3 | 0 | 0.2
9 | C[C@@H]1CCN(C(=O)CC#N)C[C@@H]1N(C)c1ncnc2[nH]ccc12 [Tofacitinib] | 0 | 0 | 0 | 0 | 0 | 12.2
10 | Cc1cnc(NC(=O)Nc2cc(Br)c(C)cc2OC[C@@H]2CNCCO2)cn1 [Rabusertib] | 0.2 | 0 | 0 | 0.4 | 0 | 0
11 | CS(=O)(=O)c1ccc(C(=O)Nc2ccc(Cl)c(-c3ccccn3)c2)c(Cl)c1 [Vismodegib] | 0 | 6.8 | 0 | 0 | 0 | 0
12 | Cc1ccc(=O)n(-c2ccccc2)c1 [Pirfenidone] | 0 | 0.7 | 0 | 1.8 | 0 | 0
13 | CCOc1cc2ncc(C#N)c(Nc3ccc(OCc4ccccn4)c(Cl)c3)c2cc1NC(=O)/C=C/CN(C)C [Neratinib] | 7 | 3 | 6 | 9 | 3.6 | 1.4
14 | O=c1[nH]c(=O)n([C@H]2C[C@H](O)[C@@H](CO)O2)cc1C(F)(F)F [Trifluridine] | 5.2 | 2.7 | 9 | 5.4 | 9.2 | 7.4
15 | COc1cc(OC)c(/C=C/S(=O)(=O)Cc2ccc(OC)c(NCC(=O)O)c2)c(OC)c1 [Rigosertib] | 27.7 | 28.9 | 30.4 | 24 | 24.1 | 28.8
16 | CCC(C)(C)C(=O)O[C@H]1C[C@@H](C)C=C2C=C[C@H](C)[C@H](CC[C@@H]3C[C@@H](O)CC(=O)O3)[C@H]21 [Simvastatin] | 1.8 | 14.6 | 3.6 | 0.4 | 0 | 8.6
17 | COc1cc(N2CCN(C)CC2)ccc1Nc1nccc(-c2cn(C)c3cnccc23)n1 [AZ191] | 3.3 | 2 | 1.3 | 5.9 | 2.3 | 6.9
18 | COc1cc2c(cc1OCCCN1CCCC1)N=C(N)C21CCC1 [A-366] | 4.1 | 0 | 0.3 | 2.1 | 0.5 | 0
19 | CN(c1ncccc1CNc1nc(Nc2ccc3c(c2)CC(=O)N3)ncc1C(F)(F)F)S(C)(=O)=O | 8.5 | 6.6 | 6.2 | 11.5 | 10.7 | 12.6
20 | CC(C)(C)c1nc(-c2cccc(NS(=O)(=O)c3c(F)cccc3F)c2F)c(-c2ccnc(N)n2)s1 [Dabrafenib] | 0.2 | 15.2 | 0.5 | 0 | 0 | 0
21 | CC[C@H](CC#N)OC(=O)N[C@@H](C)c1cccc(NC(=O)Nc2ccc(-c3cnco3)c(OC)c2)c1 [AVN944] | 22.4 | 15 | 26.6 | 12.7 | 17.5 | 19.4
22 | CCCCOc1nc(N)c2c(n1)N(Cc1cccc(CN3CCCC3)c1)CC(=O)N2 [Vesatolimod] | 0.4 | 0 | 0 | 2.9 | 0 | 0
23 | CO[C@@H](C)Cn1c(=O)n(C)c2cnc3ccc(-c4cncc(C(C)(C)O)c4)cc3c21 | 9.6 | 9.6 | 9.8 | 11.9 | 10.9 | 9.2
24 | COc1ccc2[nH]cc(/C=C3\C(=O)Nc4ccc(NC(=O)CCN5CCCCC5)cc43)c2c1 | 4 | 9.8 | 8.6 | 7.6 | 9.6 | 9.2
25 | Cc1cc(C)c(CNC(=O)c2cc(-c3ccc(CN4CCOCC4)cc3)cc3c2cnn3C2CCCC2)c(=O)[nH]1 [EPZ-5687] | 0 | 0 | 2.7 | 0 | 0 | 0

Row | SMILES | drug sensitivity score [1, 3] [DSS] | drug sensitivity score ([1]; co-cultured fibroblast: WI38) [DSS] | drug sensitivity score [1, 4] [DSS] | drug sensitivity score [2, 3] [DSS] | drug sensitivity score ([2]; co-cultured fibroblast: WI38) [DSS] | drug sensitivity score [2, 4] [DSS]
26 | O=C(CCCCCCC(=O)Nc1ccccc1)NO [Vorinostat] | 17.1 | 22.8 | 9.4 | 9.5 | 9.7 | 5.5
27 | CNC(=O)c1ccccc1Nc1cc(Nc2ccc(N3CCOCC3)cc2OC)ncc1C(F)(F)F [VS-4718] | 6.7 | 3.5 | 8.5 | 9 | 7.9 | 14.2
28 | COc1cc([C@@H]2c3cc4c(cc3[C@@H](O[C@@H]3O[C@@H]5CO[C@@H](c6cccs6)O[C@H]5[C@H](O)[C@H]3O)[C@H]3COC(=O)[C@H]23)OCO4)cc(OC)c1O [Teniposide] | 0 | 0 | 0.4 | 0 | 0 | 0
29 | C[C@H]1Oc2cc(cnc2N)-c2c(nn(C)c2C#N)CN(C)C(=O)c2ccc(F)cc21 | 0.4 | 8.7 | 5.7 | 0.7 | 0 | 0
30 | CNC(=O)c1cc(Oc2ccc(NC(=O)Nc3ccc(Cl)c(C(F)(F)F)c3)cc2)ccn1 [Sorafenib] | 0 | 0 | 0 | 0 | 0 | 0
31 | Cc1ccc(C(=O)Nc2ccc(CN3CCN(C)CC3)c(C(F)(F)F)c2)cc1C#Cc1cnc2cccnn12 [Ponatinib] | 3.5 | 6.5 | 3.1 | 8.3 | 6.3 | 21.9
32 | C[C@@H]1CN(CC(=O)Nc2ccc3c(c2)Cc2cccc(-c4cc(=O)cc(N5CCOCC5)o4)c2S3)C[C@H](C)O1 | 7.6 | 5.6 | 0.7 | 3.2 | 0.2 | 2.5
33 | CC(C)c1c(C(=O)Nc2ccccc2)c(-c2ccccc2)c(-c2ccc(F)cc2)n1CC[C@@H](O)C[C@@H](O)CC(=O)O [Atorvastatin] | 4 | 11.7 | 6 | 3.1 | 2.1 | 1.9
34 | CC(C)Oc1ccc(C(=O)N[C@H](CNC(=O)CN(C)C)Cc2ccc(-c3cn4cccc([C@H](C)O)c4n3)cc2)cc1Cl | 18.3 | 14.2 | 16.6 | 18.1 | 22.6 | 22.8
35 | CC[C@@H]1C(=O)N(C)c2cnc(Nc3ccc(C(=O)N[C@H]4CC[C@H](N5CCN(CC6CC6)CC5)CC4)cc3OC)nc2N1C(C)C [Volasertib] | 26.5 | 21.5 | 24.7 | 16.4 | 17.9 | 21.4
36 | COc1ccc(-c2nc(N3CCOCC3)c3sc(CN(C)c4ncc(C(=O)NO)cn4)cc3n2)cn1 [CUDC-907] | 43.2 | 41.7 | 30 | 34.1 | 28.6 | 29.7
37 | CO[C@H]1C(=O)[C@]2(C)[C@@H](OC)C[C@H]3OC[C@@]3(OC(C)=O)[C@H]2[C@H](OC(=O)c2ccccc2)[C@]2(O)C[C@H](OC(=O)[C@H](O)[C@@H](NC(=O)OC(C)(C)C)c3ccccc3)C(C)=C1C2(C)C [Cabazitaxel] | 39.1 | 36 | 26 | 27.5 | 27.8 | 21.4
38 | N#CC(c1ccnc(OCc2ccc(CN3CCOCC3)cc2)n1)c1nc2ccccc2s1 (centres undefined) [Bentamapimod] | 0 | 0 | 1.4 | 2.5 | 2.3 | 0.2
39 | COc1ncc(-c2ccc3nccc(-c4ccnnc4)c3c2)cc1NS(=O)(=O)c1ccc(F)cc1F [Omipalisib] | 8.9 | 6.5 | 13 | 17.1 | 17.9 | 12.1
40 | Clc1ccc(Nc2nnc(Cc3ccncc3)c3ccccc23)cc1 [Vatalanib] | 0.2 | 0 | 0 | 0 | 0.7 | 0
41 | CC(C)C[C@@H](C(=O)N[C@H](C(=O)OC1CCCC1)c1ccccc1)[C@H](O)C(=O)NO [Tosedostat] | 14.5 | 11.4 | 6.5 | 2 | 1.3 | 2.1
42 | Cc1sc2c(c1C)C(c1ccc(Cl)cc1)=N[C@@H](CC(=O)Nc1ccc(OCCOCCOCCOCCNc3cccc4c3C(=O)N(C3CCC(=O)NC3=O)C4=O)cc1)c1nnc(C)n1-2 (some centres undefined) [ARV-825] | 19.6 | 14.7 | 18.8 | 6.9 | 7.9 | 4.5
43 | O=C(O)CC1CC(c2ccccc2)=NO1 (centres undefined) [VGX-1027] | 0.3 | 0 | 0 | 0 | 0 | 0
44 | CC(C)N(CCCNC(=O)Nc1ccc(C(C)(C)C)cc1)C[C@H]1O[C@@H](n2cc(Br)c3c(N)ncnc32)[C@H](O)[C@@H]1O [SGC0946] | 0 | 0 | 0 | 0.1 | 3.3 | 0
45 | CC(=O)Nc1ccc(C(=O)Nc2ccccc2N)cc1 [Tacedinaline] | 0 | 0 | 1.8 | 0 | 2.6 | 3.7
46 | CCOC(=O)C1=CCCC[C@H]1S(=O)(=O)Nc1ccc(F)cc1Cl [Resatorvid] | 0 | 0 | 0 | 0 | 0.2 | 0
47 | CN1CCC(COc2cnc(-c3cccc(Cn4nc(-c5cccc(C#N)c5)ccc4=O)c3)nc2)CC1 [Tepotinib] | 0 | 0 | 1.8 | 0.2 | 0 | 3
48 | COc1cc2ncnc(Nc3ccc(F)c(Cl)c3)c2cc1OCCCN1CCOCC1 [Gefitinib] | 5.8 | 0 | 3.7 | 2.9 | 3 | 0
49 | Nc1nc2cc(-c3ccc4ncc(C(=O)N5CCOCC5)n4c3)ccc2o1 [Serabelisib] | 0.8 | 0 | 0 | 3.3 | 0.4 | 3.1
